In US20160030416A1, “METHODS OF TREATING B2-BRADYKININ RECEPTOR MEDIATED ANGIOEDEMA” (SHIRE HUMAN GENETIC THERAPIES, INC., priority 2013, published 2016):

How the values were obtained:
[1] = molecular target: T1, μ (h) (MOP) (agonist site) (Homo sapiens, UniProt P35372); assay: Off-target receptor binding: μ (MOP)
T1 construct: expressed in transfected cells; host or cells: CHO or HEK 293 (not assigned per receptor)
Method: To determine the affinity to the B2-bradykinin receptor, CFMQ was compared to a diverse set of receptors and reference agents in an in vitro assay using cells from rat heart, urinary bladder, cerebral cortex, as well as human recombinant cells (CHO and HEK 293) and other cell lines. Each assay included a ligand at a specific concentration (concentration ranging from 0.007-10 nM), in addition to a non-specific ligand (concentration ranging from […]) for incubation periods ranging from 15 minutes to 6 hours at 4°-37° C. The specific binding to the receptors was defined as the difference between the total binding and the nonspecific binding, determined in the presence of an excess of unlabeled CFMQ. The concentration causing a half-maximal inhibition of control specific binding (IC50 values) and inhibition constants (Ki) were determined, and each reference compound was within the accepted limits of the historic average (±0.5 log units).

[2] = Plasma kinetics, intravenous, CD-1 mice; format: in vivo, female CD-1 mice
Method: (§1) CFMQ (HGT3711) was administered to fasted female CD-1 mice by a single intravenous injection at 1.0 mg/kg, formulated in 100% PEG200. Blood samples were taken via cardiac puncture prior to administration and at 0.083 (5 min), 0.25 (15 min), 0.50 (30 min), 1, 2, 4, and 8 hours post dose. Plasma concentrations of CFMQ (HGT3711) were determined by LC-MS/MS and concentrations below the limit of quantitation (BLOQ=<1 ng/ml) were assigned a value of zero for pharmacokinetic analysis. Nominal dosing concentrations were used in all calculations.

[3] = Plasma kinetics, intravenous, Sprague-Dawley rats; format: in vivo, female Sprague-Dawley rats
Method: as §1, with “Sprague-Dawley rats” for “CD-1 mice”, “PEG200 (Table 2.6.5.X, Study 10SHIRUSP11).” for “PEG200.”, “a jugular vein cannula” for “cardiac puncture”, “4” for “4,”, “(1 ng/mL)” for “(BLOQ=<1 ng/ml)”

[4] = In vitro microsomal stability, dog; format: in vitro ADME; conditions: Dog (Beagle), Male
Method: (§2) In vitro metabolic stability studies were performed to determine hepatic stability in vivo. CFMQ was incubated in liver microsomal preparations from mouse, rat, dog, mini-pig, and humans, as well as an additional study with monkey and human. CFMQ was incubated with human and animal liver microsomes at 0.3 mg/mL at 37° C. for 30 or 60 minutes. Additional reference compounds were incubated as controls. Following incubation, samples were analyzed by HPLC-MS/MS.

[5] = In vitro microsomal stability, human; format: in vitro ADME; conditions: Mix
Method: as §2

[6] = female, CD-1, mouse, plasma, IV 1 mg/kg
[7] = female, CD-1, mouse, plasma, IV 1 mg/kg, extrapolated to t = 0
[8] = female, Sprague-Dawley, rat, plasma, IV 1 mg/kg

T1 sequence (P35372 whole entry): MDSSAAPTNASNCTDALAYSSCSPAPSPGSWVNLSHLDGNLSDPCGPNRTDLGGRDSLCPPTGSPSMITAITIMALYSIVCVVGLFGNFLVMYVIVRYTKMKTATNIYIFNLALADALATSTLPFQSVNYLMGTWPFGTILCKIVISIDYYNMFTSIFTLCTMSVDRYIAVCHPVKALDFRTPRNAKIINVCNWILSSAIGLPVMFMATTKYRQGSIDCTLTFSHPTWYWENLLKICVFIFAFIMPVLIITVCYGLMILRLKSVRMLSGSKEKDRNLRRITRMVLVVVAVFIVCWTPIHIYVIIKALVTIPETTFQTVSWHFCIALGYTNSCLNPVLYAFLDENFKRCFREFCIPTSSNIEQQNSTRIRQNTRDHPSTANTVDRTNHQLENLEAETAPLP

`Cc1cc(Cl)c(COc2cccc3c(-n4cc(F)cn4)cc(C)nc23)c(Cn2cccc(C#N)c2=O)n1` [CFMQ, 1-((4-Chloro-3-(((4-(4-fluoro-1H-pyrazol-1-yl)-2-methylquinolin-8-yl)oxy)methyl)-6-methylpyridin-2-yl)methyl)-2-oxo-1,2-dihydropyridine-3-carbonitrile] showed an IC50 [1] of 6.7 µM, a Ki [1] of 2.7 µM and a nH [1] of 1.0. For the same molecule, the inhibition at 10 µM ([1]; CFMQ at 10 μM) was 54%, the “plasma concentration” value ([2]; IV 1 mg/kg, by 4 hours post-dose, BLOQ=<1 ng/ml) was “below the BLOQ” and the “adverse reactions” value ([2]; IV 1.0 mg/kg, mice) was “No adverse reactions were observed”. For the same molecule, the AUC(0-inf) [2, 6] was 70.9 ng·h/mL, the clearance [2, 6] was 235 mL/min/kg and the half-life [2, 6] was 0.56 h. The concentration at 0.083 hr ([2]; female, CD-1, mouse, plasma, IV 1 mg/kg, 0.083 hr, read-out: Average Concentration of HGT3711) was 162 ng/mL, the concentration at 0.25 hr ([2]; female, CD-1, mouse, plasma, IV 1 mg/kg, 0.25 hr, read-out: Average Concentration of HGT3711) was 92.9 ng/mL and the concentration at 0.5 hr ([2]; female, CD-1, mouse, plasma, IV 1 mg/kg, 0.50 hr, read-out: Average Concentration of HGT3711) was 22.4 ng/mL. It also gave a concentration at 1 hr ([2]; female, CD-1, mouse, plasma, IV 1 mg/kg, 1.0 hr, read-out: Average Concentration of HGT3711) of 12.6 ng/mL, a concentration at 2 hr ([2]; female, CD-1, mouse, plasma, IV 1 mg/kg, 2.0 hr, read-out: Average Concentration of HGT3711) of 3.48 ng/mL and a C0 [2, 7] of 214 ng/mL. For the same molecule, the Tmax [2, 7] was 0 h, the AUC(0-t) ([2]; female, CD-1, mouse, plasma, IV 1 mg/kg, read-out: AUClast ± SE) was 68.1 ng·h/mL and the Vd ([2]; female, CD-1, mouse, plasma, IV 1 mg/kg, read-out: Vss) was 6.3 L/kg. For the same molecule, the “clearance as % of liver blood flow in rat (3.3 L/hr/kg)” value ([3]; IV 1 mg/kg) was “approximately 30%”, the “adverse reactions” value ([3]; IV 1.0 mg/kg, rats) was “no adverse reactions observed” and the AUC(0-inf) [3, 8] was 1410 ng·h/mL. For the same molecule, the AUC(0-t) [3, 8] was 1150 ng·h/mL, the C0 [3, 8] was 747 ng/mL and the Tmax [3, 8] was 0 h. The clearance [3, 8] was 15.8 mL/min/kg, the half-life [3, 8] was 2.86 ± 2.54 h and the concentration at 0 hr ([3]; female, Sprague-Dawley, rat, plasma, IV 1 mg/kg, 0 hr, read-out: Average Concentration of HGT3711) was 0 ng/mL. It also gave a concentration at 0.083 hr ([3]; female, Sprague-Dawley, rat, plasma, IV 1 mg/kg, 0.083 hr, read-out: Average Concentration of HGT3711) of 597 ng/mL, a concentration at 0.25 hr ([3]; female, Sprague-Dawley, rat, plasma, IV 1 mg/kg, 0.25 hr, read-out: Average Concentration of HGT3711) of 401 ng/mL and a concentration at 0.5 hr ([3]; female, Sprague-Dawley, rat, plasma, IV 1 mg/kg, 0.50 hr, read-out: Average Concentration of HGT3711) of 324 ng/mL. For the same molecule, the concentration at 1 hr ([3]; female, Sprague-Dawley, rat, plasma, IV 1 mg/kg, 1.0 hr, read-out: Average Concentration of HGT3711) was 248 ng/mL, the concentration at 2 hr ([3]; female, Sprague-Dawley, rat, plasma, IV 1 mg/kg, 2.0 hr, read-out: Average Concentration of HGT3711) was 160 ng/mL and the concentration at 4 hr ([3]; female, Sprague-Dawley, rat, plasma, IV 1 mg/kg, 4.0 hr, read-out: Average Concentration of HGT3711) was 113 ng/mL. For the same molecule, the concentration at 8 hr ([3]; female, Sprague-Dawley, rat, plasma, IV 1 mg/kg, 8.0 hr, read-out: Average Concentration of HGT3711) was 36.9 ng/mL, the Vd ([3]; female, Sprague-Dawley, rat, plasma, IV 1 mg/kg, read-out: Vss) was 2.6 ± 1.1 L/kg and the “% Remaining [30 minutes]” value ([4]; 30 minutes) was 66%. The “% Remaining [60 minutes]” value ([4]; 60 minutes) was 45%, the “% Remaining [30 minutes]” value ([5]; 30 minutes) was 70-91% and the “% Remaining [60 minutes]” value ([5]; 60 minutes) was 50-85%.
